We go through four compounds from patent publication US8071777B2, “Compounds derived from artesunate, preparation process, pharmaceutical composition and use of the respective medicine” (Fundação Oswaldo Cruz - FIOCRUZ, priority 2004, dated 2011).

Converted amounts (≈) assume the structure as drawn. “And” between values parts separate entries of the source, which are not always exact repeats. Identical values can stand only once. Like-named read-outs stand apart in the source and are kept apart here.

One assay relates to P. falciparum (W2). Nature of the assay: Antimalarial activity in vitro against P. falciparum cultivated in red cells, 72 hours. Type of assay: cell-based. The note with it: for IC50: Plasmodium falciparum. On the procedure: The tests in vitro to evaluate the antimalarial activity were carried out with P. falciparum cultivated in red cells in 10% of human serum, in slabs of 96 wells, using Rieckman et al's traditional method, modified by Carvalho et al. Braz J. Med. Biol. Research, 1991. The parasites were incubated for 72 hours in culture medium having samples “A”, “B” and “C” in different dilutions in ideal atmospherical conditions at 37° C.; drugs and the culture medium was changed every 24 hours. After this period, blood samples were collected for evaluation of the activity of each compound. As to control wells with complete culture medium were maintained, but with no addition of drugs, and wells in which chloroquine was present in different tested concentrations in triplicate.
(§1) Not only in vivo but also in vitro, the activity of drugs was evaluated in relation to the group control without any drugs.

The subject of a further assay is Plasmodium berghei. As to the kind of experiment: Antimalarial activity in vivo in mice infected with Plasmodium berghei NK 65, oral treatment for 4 days. The note with it: for Average parasitaemia (%) ± SD on day 5 / Average parasitaemia (%) ± SD on day 7: 12 mg/kg via oral for 4 days in sequence, mice infected by Plasmodium berghei; for Average parasitaemia (%) ± SD on day 5: day 5 of infection; for Average parasitaemia (%) ± SD on day 7: day 7 of infection; for Cumulative mortality on day 10 of infection / Cumulative mortality on day 19 of infection / Cumulative mortality on day 23 of infection / Cumulative mortality on day 35 of infection / Cumulative mortality on day 48 of infection: 5 mice in each group; for % Inhibition of parasitaemia on day 5: day 5, in relation to the group control not treated; for % Inhibition of parasitaemia on day 7: day 7, in relation to the group control not treated; for Suppression of the acute parasitaemia of treated animals: evaluations on the 5th and 7th day after the infection; for Parasitaemia at late follow-up: negative or recrudescence: new blood samples days 30 to 48. The protocol:
To evaluate the antimalarial activity the following tests were carried out in different experiments in vivo using groups of Swiss female albino mice, weighing between 18 and 22 g. These mice were innoculated with 100,000 red cells infected with strain NK 65 of Plasmodium berghei (cause of malaria in rodents) according to the scheme previously proposed (Peters et al., Annals of Tropical Medicine and Parasitology, 1993, 87, 547). After inoculating the parasite via intraperitoneal, the animals were divided at random into groups of five. The treatment of the mice were initiated the day after the inoculation, for 4 days in sequence, applying samples “A”, “B” e “C” administered via oral. The different groups of mice, represented by groups treated and not treated (group control) were kept in the same conditions, in polyacetylene cages, water and ration was offered ad libitum. A group was treated with chloroquine, an antimalarial of reference. The development of the infection was verified in all groups through blood samples collected for parasitaemia on the 5th and 7th day after the infection, and the parasitaemia was measured based on double blind tests, in codified slides, in order to minimize occasional bias.
as §1

Where [1] appears, read: P. falciparum (W2) in vitro, Experiment 1, approximated.
The mark [2] stands for this setting: P. falciparum (W2) in vitro, Experiment 2, approximated.
Setting [3] is: 12 mg/kg via oral for 4 days, day 48.
[4] abbreviates: W2, read-out: Inhibiting concentration (IC) 50%, Experiment 1.
[5] abbreviates: W2, read-out: Inhibiting concentration (IC) 50%, Experiment 2.

Regarding `OC(c1cc(C(F)(F)F)nc2c(C(F)(F)F)cccc12)C1CCCCN1` (stereo not drawn) [C, mefloquine], in the assay with P. falciparum (W2) (setting [1]), the “Inhibiting concentration (IC) 40%, Experiment 1” value came to 0.93 ng/mL; the “Inhibiting concentration (IC) 80%, Experiment 1” value stood at 12.9 ng/mL; the “Inhibiting concentration (IC) 95%-100%, Experiment 1” value is “≧50 ng/ml”. In the assay with P. falciparum (W2) (setting [2]), the “Inhibiting concentration (IC) 40%, Experiment 2” value was 2.8 ng/mL; the “Inhibiting concentration (IC) 80%, Experiment 2” value was “≧5 ng/ml”; the “Inhibiting concentration (IC) 95%-100%, Experiment 2” value was “≧5 ng/ml”. For the same compound, in the assay with P. falciparum (W2) (P. falciparum (W2) in vitro, Experiment 1, approximated, read-out: Inhibiting concentration (IC) 50%, Experiment 1), the IC50 amounted to 1.24 ng/mL (≈ 3.28 nM). Also, the IC50 in the assay on P. falciparum (W2) (P. falciparum (W2) in vitro, Experiment 2, approximated, read-out: Inhibiting concentration (IC) 50%, Experiment 2) was found to be 3.4 ng/mL (≈ 8.99 nM). Besides, in the assay on Plasmodium berghei, the “Average parasitaemia (%) ± SD on day 5” value is given as 0% and the “Average parasitaemia (%) ± SD on day 7” value was 0%. Moreover, in the assay with Plasmodium berghei (12 mg/kg via oral for 4 days), the “Cumulative mortality on day 10 of infection” value is given as 0, the “Cumulative mortality on day 19 of infection” value came out at 0, the “Cumulative mortality on day 23 of infection” value was determined as 0 and the “Cumulative mortality on day 35 of infection” value was found to be 0. Further, in the assay on Plasmodium berghei (12 mg/kg via oral for 4 days), the “% Inhibition of parasitaemia on day 5” value is recorded as “(100%)” and the “% Inhibition of parasitaemia on day 7” value is reported as “(100%)”. In addition, the “Cumulative mortality on day 48 of infection” value with Plasmodium berghei (setting [3]) was 0. Moreover, in the assay on Plasmodium berghei (12 mg/kg via oral), the “Suppression of the acute parasitaemia of treated animals” value (“Suppression” below) turned out to be 100% and the “Parasitaemia at late follow-up: negative or recrudescence” value (“Parasitaemia at late follow-up” for short) was “remained negative”.

As to `C[C@H]1[C@H](OC(=O)CCC(=O)O)O[C@@H]2O[C@@]3(C)CC[C@H]4[C@H](C)CC[C@@H]1[C@@]24OO3` [B, artesunate], in the assay on P. falciparum (W2) (setting [1]), the “Inhibiting concentration (IC) 40%, Experiment 1” value worked out at 0.37 ng/mL; the “Inhibiting concentration (IC) 80%, Experiment 1” value is 0.99 ng/mL; the “Inhibiting concentration (IC) 95%-100%, Experiment 1” value was 1.54 ng/mL. In the assay with P. falciparum (W2) (setting [2]), the “Inhibiting concentration (IC) 40%, Experiment 2” value amounted to 0.33 ng/mL; the “Inhibiting concentration (IC) 80%, Experiment 2” value came out at 1.3 ng/mL; the “Inhibiting concentration (IC) 95%-100%, Experiment 2” value was “≧5 ng/ml”. Further, the IC50 in the assay with P. falciparum (W2) (setting [4]) stood at 0.46 ng/mL (≈ 1.2 nM). Also, the IC50 in the assay on P. falciparum (W2) (setting [5]) came to 0.43 ng/mL (≈ 1.12 nM). In the assay on Plasmodium berghei, the “Average parasitaemia (%) ± SD on day 5” value was found to be 0% and the “Average parasitaemia (%) ± SD on day 7” value was 0%. Also, in the assay on Plasmodium berghei (12 mg/kg via oral for 4 days), the “Cumulative mortality on day 10 of infection” value is reported as 0, the “Cumulative mortality on day 19 of infection” value was 0, the “Cumulative mortality on day 23 of infection” value turned out to be 1 and the “Cumulative mortality on day 35 of infection” value is 2. Besides, in the assay on Plasmodium berghei (12 mg/kg via oral for 4 days), the “% Inhibition of parasitaemia on day 5” value was “(100%)” and the “% Inhibition of parasitaemia on day 7” value was “(100%)”. The “Cumulative mortality on day 48 of infection” value with Plasmodium berghei (setting [3]) was 3. Moreover, in the assay with Plasmodium berghei (12 mg/kg via oral), the “Suppression” value amounted to 100% and the “Parasitaemia at late follow-up” value is on record as “showed recrudescency of the parasitaemia”. Further, the “Mortality during follow-up of treatment” value with Plasmodium berghei (12 mg/kg via oral, follow-up of about 30 days) is on record as “mortality occurred”. The “% parasitaemia, Average ± Sd, day 30” value with Plasmodium berghei (12 mg/kg, group average, day 30) stood at 16.6 ± 20.4%. Further, the “% parasitaemia, Average ± Sd, day 33” value with Plasmodium berghei (12 mg/kg, group average, day 33) is 23.3 ± 24.3%. The “% parasitaemia, Average ± Sd, day 36” value in the assay on Plasmodium berghei (12 mg/kg, group average, day 36) was found to be 33.5 ± 27.4%. The “% parasitaemia, Average ± Sd, day 48” value in the assay on Plasmodium berghei (12 mg/kg, group average, day 48) worked out at 30 ± 21.2%. For the same compound, the “% Individual parasitaemia on day 30 (recrudescence)” value with Plasmodium berghei (12 mg/kg, individual animals infected by P. berghei, day 30, † = Animal death) is 0.6% and 24% and 0% and 42%. In addition, in the assay on Plasmodium berghei (12 mg/kg, individual animals infected by P. berghei, day 33, † = Animal death), the “% Individual parasitaemia on day 33 (recrudescence)” value is 5% and 40% and 0% and 48%. Moreover, the “% Individual parasitaemia on day 36 (recrudescence)” value in the assay with Plasmodium berghei (12 mg/kg, individual animals infected by P. berghei, day 36, † = Animal death) was 14% and 53% and 0%. Moreover, the “% Individual parasitaemia on day 48 (recrudescence)” value in the assay with Plasmodium berghei (12 mg/kg, individual animals infected by P. berghei, day 48, † = Animal death) was 30% and 0%.

Turning to `CCN(CC)CCCC(C)Nc1ccnc2cc(Cl)ccc12` (stereo not drawn) [QC, chloroquine], in the assay on P. falciparum (W2) (setting [1]), the “Inhibiting concentration (IC) 40%, Experiment 1” value was found to be 41.1 ng/mL; the “Inhibiting concentration (IC) 80%, Experiment 1” value came out at 82.3 ng/mL; the “Inhibiting concentration (IC) 95%-100%, Experiment 1” value came out at 277.7 ng/mL. In addition, in the assay with P. falciparum (W2) (setting [2]), the “Inhibiting concentration (IC) 40%, Experiment 2” value came to 48.2 ng/mL; the “Inhibiting concentration (IC) 80%, Experiment 2” value was determined as 133.4 ng/mL; the “Inhibiting concentration (IC) 95%-100%, Experiment 2” value is given as “≧200 ng/ml”. In addition, the IC50 in the assay on P. falciparum (W2) (setting [4]) was 51.3 ng/mL (≈ 160 nM). Further, in the assay with P. falciparum (W2) (setting [5]), the IC50 was 55.5 ng/mL (≈ 174 nM).

Regarding `CC1CCC2C(C)C(OC(=O)CCC(=O)O)OC3OC4(C)CCC1C32OO4.OC(c1cc(C(F)(F)F)nc2c(C(F)(F)F)cccc12)C1CCCCN1` (stereo not drawn) [A, salt of artesunate and mefloquine], in the assay with P. falciparum (W2) (setting [1]), the “Inhibiting concentration (IC) 40%, Experiment 1” value stood at 0.83 ng/mL; the “Inhibiting concentration (IC) 50%, Experiment 1” value came out at 1.03 ng/mL; the “Inhibiting concentration (IC) 80%, Experiment 1” value came out at 1.85 ng/mL; the “Inhibiting concentration (IC) 95%-100%, Experiment 1” value worked out at 4.07 ng/mL. Further, in the assay on P. falciparum (W2) (setting [2]), the “Inhibiting concentration (IC) 40%, Experiment 2” value stood at 0.46 ng/mL; the “Inhibiting concentration (IC) 50%, Experiment 2” value is 0.8 ng/mL; the “Inhibiting concentration (IC) 80%, Experiment 2” value worked out at 1.5 ng/mL; the “Inhibiting concentration (IC) 95%-100%, Experiment 2” value is listed as “≧5 ng/ml”. Also, in the assay with Plasmodium berghei (12 mg/kg via oral for 4 days), the “Cure of malaria in treated animals” value is “the cure of malaria was observed”, the “Cumulative mortality on day 10 of infection” value was found to be 0, the “Cumulative mortality on day 19 of infection” value worked out at 0 and the “Cumulative mortality on day 23 of infection” value came to 0. In addition, in the assay on Plasmodium berghei (12 mg/kg via oral for 4 days), the “Cumulative mortality on day 35 of infection” value is on record as 0, the “% Inhibition of parasitaemia on day 5” value is given as “(100%)” and the “% Inhibition of parasitaemia on day 7” value is listed as “(100%)”. In the assay with Plasmodium berghei, the “Average parasitaemia (%) ± SD on day 5” value is on record as 0% and the “Average parasitaemia (%) ± SD on day 7” value is recorded as 0%. For the same compound, the “Cumulative mortality on day 48 of infection” value with Plasmodium berghei (setting [3]) is on record as 0. For the same compound, in the assay on Plasmodium berghei (12 mg/kg via oral), the “Suppression” value came out at 100% and the “Parasitaemia at late follow-up” value is listed as “remained negative”.
